Laboratory results taken from patent US9365851B2, “Spalt-like transcription factor 4 (SALL4) and uses thereof” (National University of Singapore, priority 2011, dated 2016).
pIC50: −log10 of the molar value. Where two headings read alike, the source gives them in different places.

Assays:
[1] = target: T1, HDAC complex (Homo sapiens, UniProt Q09028); test: Fluorescent polarization competitive binding in SNU-398 nuclear extracts; conditions: unlabeled peptide competing with FITC-labeled peptide
T1 construct: endogenous in cells; host or cells: SNU-398 nuclear extract
Protocol: Below are the amino acid sequences of the peptides used in this study. In the mutant peptide (mut), Lys 5 is replaced with an alanine residue. […] In the first lane marked “Input”, 10% of the extracts were subjected to western blot analysis without immunoprecipitation. […] Extracts were subsequently immunoprecipitated with anti-FITC antibody and the complexes pulled down were subjected to an HDAC activity assay as described in the methods. TSA was added at a concentration of 100 nM. Input is the sample in which 10% of the extract was assayed for HDAC activity without the immunoprecipitation step. […] Competitive binding of nonlabeled wild type or scrambled peptides was measured by fluorescent polarization. […] The fluorescent polarization (y axis) is decreased if the FITC-labeled peptide is displaced from a larger complex.
Next tested was the binding affinity of the wild type and scrambled peptides to the HDAC complex. For this, Fluorescent Polarization (FP), a technology based on molecular movement and rotation in which fluorescent molecules are excited with polarized light, was used. If the fluorescent molecules are part of a large complex, they rotate less and the emitted light has high polarity. In contrast, smaller molecules rotate faster and have low polarity (“depolarized”). […] Using this approach, FITC-labeled wild type or scrambled peptides were first mixed with nuclear extracts from SNU-398 cells. Serial dilutions of unlabeled wild type or scrambled peptides were then added as competitors respectively, and measured by FP assay.

[2] = tested on: PTEN promoter region; test: ChIP-qPCR of H3 acetylation at the PTEN promoter in SNU-398 cells; format: cell-based, human; conditions: SNU-398, ChIP-qPCR
From the text: FIGS. 9A-9E: The wild type peptide blocks SALL4 repression of PTEN. (9A) Flow cytometry analysis on SNU-398 cells treated with Pep-1 carrier peptide alone (top panel), wild type peptide alone (middle panel), or Pep-1 carrier+peptide (lower panel). […] (9B) Confocal images of the distribution of FITC-labeled peptide in SNU-398 cells treated as shown in (9A). (9C) The endogenous SALL4 interaction with HDAC is blocked by wild type (wt) but not scrambled (scr) peptide. SALL4 was immunoprecipitated from SNU-398 nuclear extracts (1×10^6 cells) pre-treated with wild type or scrambled peptides as indicated using an anti-SALL4 antibody. Immunoprecipitates were analyzed by Western blot using HDAC1 (top panel) or SALL4 (lower panel) antibodies. […] Equal amount of SALL4 protein was present in all samples. In Lane 4 (“10% input”), 10% of the amount of nuclear extract used in lanes 1-3 was subjected to Western blot analysis without immunoprecipitation. […] Enrichment with control IgG was set at 1.
Whether this peptide can reverse the repressive effect of SALL4 on its target genes was then tested. Pten was chosen as an example since it is one of genes implicated in SALL4-mediated leukemogenesis. In addition, it was previously reported that SALL4 and NuRD component HDAC2 shared the same binding site at a specific Pten promoter region identified by a ChIP assay. When SALL4 was overexpressed in 293T cells, an enrichment of SALL4 as well as HDAC2 but a decreased H3 acetylation at this binding site were observed, which was correlated with a decreased Pten mRNA expression. It is likely that SALL4 recruits the NuRD complex in repressing Pten expression. If this model of the role of wt peptide is correct, then it could compete with endogenous SALL4 in recruiting NuRD to the binding site on Pten promoter. […] SNU-398 cells were treated with Scr or wt peptide and then evaluated for the Pten mRNA expression, as well as the status of HDAC2 binding and H3 acetylation at the Pten promoter region.
Then tested was whether this peptide could reverse the repressive effect of SALL4 on its target genes. The focus was onPTEN, since it is implicated in SALL4-mediated leukemogenesis (Yang et al., Blood, 112:805-813 (2008); Lu et al., PLoS One, 4:e5577 (2009)). In addition, it was previously reported that SALL4 could specifically bind to the PTEN promoter region in a chromatin immunoprecipitation (ChIP) assay (Lu et al., PLoS One, 4:e5577 (2009)). […] To test this possibility, SNU-398 cells were treated with scrambled or wild type peptide and subsequently evaluated for PTEN expression and H3 acetylation at the SALL4 binding site at the PTEN promoter region. […]

T1 sequence (Q09028 whole entry, one chain of several): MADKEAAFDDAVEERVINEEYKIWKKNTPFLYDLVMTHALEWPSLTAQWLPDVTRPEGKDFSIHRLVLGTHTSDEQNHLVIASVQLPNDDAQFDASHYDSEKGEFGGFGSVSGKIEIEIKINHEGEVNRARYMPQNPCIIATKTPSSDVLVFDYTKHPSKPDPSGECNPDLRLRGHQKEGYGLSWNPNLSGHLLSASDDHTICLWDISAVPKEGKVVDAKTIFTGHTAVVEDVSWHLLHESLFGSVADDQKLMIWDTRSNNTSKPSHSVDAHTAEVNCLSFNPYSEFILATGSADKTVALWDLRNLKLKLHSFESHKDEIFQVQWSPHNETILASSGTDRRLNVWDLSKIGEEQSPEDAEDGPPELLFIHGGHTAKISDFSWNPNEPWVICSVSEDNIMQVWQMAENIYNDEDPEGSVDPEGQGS

Substance	IC50 [1]	H3 acetylation at the PTEN promoter region [2]	pIC50 ([1]; read-out: IC50)	H3 acetylation at the PTEN promoter region ([2]; listed as Wild type peptide)	H3 acetylation at the PTEN promoter region ([2]; listed as Wt)	H3 acetylation at the PTEN promoter region ([2]; listed as wild type peptide)
Scr peptide: same 12 amino acids as the wt peptide, but in a scrambled sequence; negative control (SRMRQKIHPKIQ) [reference compound]	could not be calculated due to the lack of binding activity	not observed	–	–	–	–
H-MSRRKQAKPQHI-OH [wt peptide, MSRRKQAKPQHI]	–	–	5.30	increased H3 acetylation	increased H3 acetylation	increased H3 acetylation markers
